Test results from US11421145B2, “Oil recovery methods using a formulation containing an unsaturated zwitterionic surfactant and a polymer” (King Fahd University of Petroleum and Minerals, priority 2019, dated 2022).

Tests used:
[1] = Short-term thermal stability by thermogravimetric analysis (TGA); format: physicochemical
Protocol: The short-term thermal stability of the unsaturated surfactant was assessed using thermogravimetric analysis (TGA). The thermal stability for a longer period (2 weeks) was determined by FTIR and NMR. The synthesized unsaturated surfactant was dried and heated at 10° C./min in an SDT-Q600 instrument (TA Instruments) from room temperature to 600° C. under nitrogen atmosphere. The thermal stability for a longer period was determined by aging 1 wt % aqueous solution of the unsaturated surfactant at 90° C. for 15 days. FTIR, ^13C NMR, and ^1H NMR were used to identify the structural changes in the unsaturated surfactant after aging. A Nicolet 6700 spectrometer was used for FTIR analysis of the unsaturated surfactant, while a JEOL 500 MHz spectrometer was used for obtaining the NMR spectra.
Solubility and compatibility of the surfactant in the reservoir and injection brine are the primary considerations for further evaluation of the unsaturated surfactant for EOR application. If the surfactant is not soluble in the seawater and formation brine, it can be rejected at the initial stage. […] After the compatibility test with SW and FW, the short-term thermal stability of the synthesized unsaturated surfactant was evaluated using TGA analysis. […] Only 3% weight loss was observed up to 200° C., which was mainly associated with solvent and water evaporation. […]

[2] = Interfacial tension between crude oil and water, spinning drop tensiometer; format: physicochemical; conditions: for IFT after aging: after aging at 90° C. for 2 weeks
Text: API gravity and molecular weight of the oil were 30 and 251 g mol^−1, respectively.
where γ0 is the surface tension of the brine (FW or SW), NA is the Avogadro number, dγ/dlnC is the slope below CMC in the surface tension plot, C is the surfactant concentration in brine, T is temperature, R is the gas constant, and n=1 for zwitterionic surfactants [Wang, Y., Zhang, Y., Liu, X., Wang, J., Wei, L., & Feng, Y. (2014) Effect of a hydrophilic head group on Krafft temperature, surface activities and rheological behaviors of Erucyl Amidobetaines. Journal of Surfactants and Detergents, 17:295-301—incorporated herein by reference]. The interfacial tension between crude oil and water was measured using a spinning drop tensiometer from Kruss (SITE 100). All the reported points are the average equilibrium values.
Interfacial tension is one of the main parameters to assess the performance of surfactants for EOR application. Interfacial tension depends on several parameters such as the nature of the crude oil, salinity, temperature, pH, surfactant type and its molecular structure, surfactant concentration, and residence time of the surfactant inside the reservoir. […] The spinning drop tensiometer can measure ultra-low IFT down to 10^−4 mN m^−1 at various temperatures. This equipment could go up to 90° C., but it was difficult to get a stable drop due to bubble formation, therefore the IFT calculated at 90° C. might not be an accurate representation. Therefore, measuring IFT at high temperature was avoided and another strategy was adopted. Specifically, several solutions at field conditions (90° C.) were aged for 2 weeks and then their IFT was compared with that of the original solution. The water/oil IFT was initially >9 mN m^1 in both FW and SW. […] The low CMC is advantageous because the same IFT reduction can be achieved at a very low surfactant concentration. In addition, IFT will not change considerably because of surfactant adsorption. In general, no considerable change in IFT was detected within the investigated temperatures and salinities. […] Canadian Journal of Chemical Engineering, 94:454-460; and Li, P., Yang, C., Cui, Z., Song, B., Jiang, J., & Wang, Z. (2016) A new type of sulfobetaine surfactant with double alkyl polyoxyethylene ether chains for enhanced oil recovery. Journal of Surfactants and Detergents, 19:967-977, each incorporated herein by reference in their entirety]. […] Journal of Surfactants and Detergents, 20:777-788; and Hussain, S. S., Kamal, M. S., & Sultan, A. S. (2017) Amido-amine-based cationic Gemini surfactants: Thermal and interfacial properties and interactions with cationic polyacrylamide. Journal of Surfactants and Detergents, 20:47-55, each incorporated herein by reference in their entirety].

[3] = 0.02 wt. % surfactant, FW, 60° C.
[4] = 0.02 wt. % surfactant, SW, 30° C.
[5] = 0.05 wt. % surfactant, FW, 60° C.
[6] = 0.05 wt. % surfactant, SW, 30° C.

- short-range thermal stability (TGA) [1]: excellent short-range thermal stability
- weight loss (TGA) ([1]; up to 200° C., heating rate 10° C. min^−1, nitrogen): 3%
- IFT ([2]; 0.01 wt. % surfactant, FW, 60° C.): 0.33 mN m^−1
- IFT ([2]; 0.01 wt. % surfactant, SW, 30° C.): 0.31 mN m^−1
- IFT ([2]; 0.01 wt. % surfactant, SW, 60° C.): 0.36 mN m^−1
- IFT [2, 3]: 0.25 mN m^−1
- IFT after aging [2, 3]: 0.27 mN m^−1
- IFT [2, 4]: 0.21 mN m^−1
- IFT after aging [2, 4]: 0.29 mN m^−1
- IFT ([2]; 0.02 wt. % surfactant, SW, 60° C.): 0.27 mN m^−1
- IFT [2, 5]: 0.23 mN m^−1
- IFT after aging [2, 5]: 0.26 mN m^−1
- IFT [2, 6]: 0.25 mN m^−1
- IFT after aging [2, 6]: 0.29 mN m^−1
- IFT ([2]; 0.05 wt. % surfactant, SW, 60° C.): 0.31 mN m^−1
- IFT ([2]; 0.075 wt. % surfactant, FW, 60° C.): 0.24 mN m^−1
- IFT ([2]; 0.075 wt. % surfactant, SW, 30° C.): 0.21 mN m^−1
- IFT ([2]; 0.075 wt. % surfactant, SW, 60° C.): 0.30 mN m^−1
- IFT ([2]; 0.1 wt. % surfactant, FW, 60° C.): 0.28 mN m^−1
- IFT ([2]; 0.1 wt. % surfactant, SW, 30° C.): 0.22 mN m^−1
- IFT ([2]; 0.1 wt. % surfactant, SW, 60° C.): 0.31 mN m^−1
- IFT ([2]; 0.2 wt. % surfactant, FW, 60° C.): 0.27 mN m^−1
- IFT ([2]; 0.2 wt. % surfactant, SW, 30° C.): 0.23 mN m^−1
- IFT ([2]; 0.2 wt. % surfactant, SW, 60° C.): 0.32 mN m^−1
- decrease in water/oil IFT on addition of surfactant ([2]; FW and SW, initial IFT >9): almost two orders of magnitude
- oil/water IFT, order of magnitude ([2]; not affected much by temperature and salinity): ~10^−1 mN m^−1
- change of water/oil IFT after aging ([2]; solutions aged at 90° C. for 2 weeks): did not change
SMILES: CCCCCCCC/C=C\CCCCCCCC(=O)NCCC[N+](C)(C)CCCS(=O)(=O)[O-] [unsaturated surfactant, 3-(N-oleamidopropyl-N,N-dimethylammonium) propane sulfonate]
